Consider four molecules from US5281264A, “Salt-forming type dye and ink composition” (Orient Chemical Industries, Ltd., priority 1992, dated 1994).

The data set in a line: Visible absorption of salt-forming type dyes (λmax). Type of data set: physicochemical. To be noted: spectra of dyes 1 and 4 in methanol solvent. Here is the method:
A structure of the dye is shown in the following formula, and hue and maximum absorption wavelength (λmax) are shown in Table. 1.
A structure of each salt-forming type dye is shown in the following formula, respectively. 1. [drawing 5]
Rhodamine 6 GCP (C.I. Basic Red) (140 parts, 0.3 mols) as a cation component was dissolved in water with stirring to prepare a 3% aqueous solution, which was then filtered. Thereafter, this solution (pH 2 to 4) was added dropwise to the dyestuff solution over 50 minutes, followed by stirring at 40° to 50° C. for 3 hours. The solution was heated to 65° C. to form a grit, followed by filtration, rinsing and further drying to obtain 200 parts of a powdered red salt-forming type dye (dye 4) having a structure of the following formula. It was confirmed that the resulting dye is a salt-forming type dye having n (2<n<3). 1. [drawing 6]
It was confirmed that the resulting dye has a structure of the following formula. 1. [drawing 7]
It was confirmed that the resulting dye has a structure of the following formula. 1. [drawing 8]

For the molecule `Cc1nn(-c2ccccc2)c(O)c1N=Nc1ccc(-c2ccc(N=Nc3c(C)nn(-c4ccccc4)c3O)cc2S(=O)(=O)O)c(S(=O)(=O)O)c1` [dye 7], where the note is “listed as Comp. Ex. 1”, the “Salt-forming type dye λmax (maximum absorption wavelength)” value (shortened to “Salt-forming type dye λmax”) was determined as 422 nm.

Turning to `Cc1nn(-c2ccccc2)c(O)c1N=Nc1ccc(-c2ccc(N=Nc3c(C)nn(-c4ccccc4)c3O)cc2S(=O)(=O)O)c(S(=O)(=O)O)c1` [dye 8], the “Salt-forming type dye λmax” value (listed as Comp. Ex. 2) is given as 422 nm.

Consider `Cc1nn(-c2ccccc2)c(O)c1N=Nc1ccc(-c2ccc(N=Nc3c(C)nn(-c4ccccc4)c3O)cc2S(=O)(=O)O)c(S(=O)(=O)O)c1` [dye 9], for which, where the note is “listed as Comp. Ex. 3”, the “Salt-forming type dye λmax” value came out at 525 nm.

Consider `Cc1nn(-c2ccccc2)c(O)c1N=Nc1ccc(-c2ccc(N=Nc3c(C)nn(-c4ccccc4)c3O)cc2S(=O)(=O)O)c(S(=O)(=O)O)c1` [dye 10], for which the “Salt-forming type dye λmax” value (listed as Comp. Ex. 4) was 578 nm.
